Patent US20260365670A1, “EGFR INHIBITORS AND USES THEREOF” (DIZAL (JIANGSU) PHARMACEUTICAL CO., LTD., priority 2022, published 2026)
Read-outs that look alike come from different tables or passages of the source.

How the values were obtained:
EGFR wild type = biological target: T1, EGFR wild type (Homo sapiens, UniProt P00533); assay: Inhibition of EGFR wild type biochemical enzymatic activity (HTRF); conditions: EGFR WT, 1 mM ATP, 1 h, room temperature, read-out: IC50 (nM) @WT
T1 construct: purchased Carna Bio
Procedure, shortened: (§1)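 Each enzyme was first added to plates holding compound. The reaction was then started with ATP (1 mM) and peptide substrate (1 μM). It was stopped after 1 h at room temperature with EDTA detection reagents and read at 615/665 nm to derive IC50s.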

EGFR L858R = biological target: T2, EGFR L858R (Homo sapiens, UniProt P00533, L858R); assay: Inhibition of EGFR L858R biochemical enzymatic activity (HTRF); conditions: 1 mM ATP, 1 h, room temperature, read-out: IC50 (nM) @L858R
T2 construct: purchased Carna Bio
Procedure, shortened: as §1

EGFR L858R/T790M = biological target: T3, EGFR L858R/T790M (Homo sapiens, UniProt P00533, L858R/T790M); assay: Inhibition of EGFR L858R/T790M biochemical enzymatic activity (HTRF); conditions: EGFR L858R-T790M, 1 mM ATP, 1 h, room temperature, read-out: IC50 (nM) @L858R-T790M
T3 construct: purchased Carna Bio
Procedure, shortened: as §1

EGFR Exon19Del = biological target: T4, EGFR Exon19Del (Homo sapiens, UniProt P00533, DEL746-750); assay: Inhibition of EGFR Exon19Del biochemical enzymatic activity (HTRF); conditions: EGFR Del19, 1 mM ATP, 1 h, room temperature, read-out: IC50 @Del19
T4 construct: purchased Carna Bio
Procedure, shortened: as §1

EGFR Exon19Del/T790M = biological target: T5, EGFR Exon19Del/T790M (Homo sapiens, UniProt P00533, DEL746-750/T790M); assay: Inhibition of EGFR Exon19Del/T790M biochemical enzymatic activity (HTRF); conditions: EGFR Del19-T790M, 1 mM ATP, 1 h, room temperature, read-out: IC50 (nM) @Del19-T790M
T5 construct: purchased Carna Bio
Procedure, shortened: as §1

EGFR[T790M/C797S/L858R] = biological target: T6, EGFR[T790M/C797S/L858R] (Homo sapiens, UniProt P00533, C797S/L858R/T790M); assay: Inhibition of EGFR[T790M/C797S/L858R] biochemical enzymatic activity (HTRF); conditions: EGFR T790M-C797S-L858R, 1 mM ATP, 1 h, room temperature, read-out: IC50 (nM) @T790M- C797S - L858R
T6 construct: purchased Carna Bio
Procedure, shortened: as §1

[1] = biological target: T7, EGFR[T790M/C797S/d746-750] (Homo sapiens, UniProt P00533, C797S/DEL746-750/T790M); assay: Inhibition of EGFR[T790M/C797S/d746-750] biochemical enzymatic activity (HTRF); conditions: EGFR T790M-C797S-Del19, 1 mM ATP, 1 h, room temperature, read-out: IC50 (nM) @T790M - C797S - Del19
T7 construct: purchased Carna Bio
Procedure, shortened: as §1

EGFR (d746-750 C797S) = biological target: T8, EGFR (d746-750 C797S) (Homo sapiens, UniProt P00533, C797S/DEL746-750); assay: Inhibition of EGFR (d746-750 C797S) biochemical enzymatic activity (HTRF); conditions: EGFR Del19-C797S, 1 mM ATP, 1 h, room temperature, read-out: IC50 (nM) @Del19-C797S
T8 construct: purchased signalchem
Procedure, shortened: as §1

EGFR (C797S L858R) = biological target: T9, EGFR (C797S L858R) (Homo sapiens, UniProt P00533, C797S/L858R); assay: Inhibition of EGFR (C797S L858R) biochemical enzymatic activity (HTRF); conditions: EGFR L858-C797S, 1 mM ATP, 1 h, room temperature, read-out: IC50 (nM) @L858-C797S
T9 construct: purchased signalchem
Procedure, shortened: as §1

[2] = tested on: Ba/F3 cells expressing EGFR mutations; assay: Cell proliferation assay, Ba/F3 cells expressing EGFR mutations (CellTiter-Glo, 72 hours); assay type: cell-based; conditions: CellTiter-Glo
Procedure, shortened: (§2)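 Ba/F3 cells (5000/well) and PC-9 cells (500/well, RPMI1640 with 10% FBS) were plated overnight and then dosed with a compound concentration series. Viable cells were read at day 0 (G0) and after treatment (G3). GI50 came from curve fits of G0-corrected proliferation relative to DMSO.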

PC-9 = assay: Cell proliferation assay, PC-9 cells (CellTiter-Glo, 72 hours); assay type: cell-based; conditions: PC9 cells, CellTiter-Glo, read-out: PC9 GI50
Procedure, shortened: as §2

A-431 = assay: Cell proliferation GI50, A-431 cells (Table 6); assay type: cell-based
[3] = BaF3 cells, EGFR DEL19-C797S, read-out: DEL19-C797S/BaF3 GI50
[4] = BaF3 cells, EGFR DEL19-T790-C797S, read-out: DEL19-T790-C797S/BaF3 GI50
[5] = BaF3 cells, EGFR L858R, read-out: L858R/BaF3 GI50
[6] = BaF3 cells, EGFR L858R-C797S, read-out: L858R-C797S/BaF3 GI50
[7] = BaF3 cells, EGFR L858R-T790-C797S, read-out: L858R-T790-C797S/BaF3 GI50
[8] = BaF3 cells, EGFR L858R-T790M, read-out: L858R-T790M/BaF3 GI50
[9] = EGFR DEL19-T790M, read-out: DEL19-T790M GI50
[10] = Homo sapiens, A-431, A-431 cells

T5 sequence (P00533 with tags, fused parts or gaps DEL746-750/T790M limits assumed): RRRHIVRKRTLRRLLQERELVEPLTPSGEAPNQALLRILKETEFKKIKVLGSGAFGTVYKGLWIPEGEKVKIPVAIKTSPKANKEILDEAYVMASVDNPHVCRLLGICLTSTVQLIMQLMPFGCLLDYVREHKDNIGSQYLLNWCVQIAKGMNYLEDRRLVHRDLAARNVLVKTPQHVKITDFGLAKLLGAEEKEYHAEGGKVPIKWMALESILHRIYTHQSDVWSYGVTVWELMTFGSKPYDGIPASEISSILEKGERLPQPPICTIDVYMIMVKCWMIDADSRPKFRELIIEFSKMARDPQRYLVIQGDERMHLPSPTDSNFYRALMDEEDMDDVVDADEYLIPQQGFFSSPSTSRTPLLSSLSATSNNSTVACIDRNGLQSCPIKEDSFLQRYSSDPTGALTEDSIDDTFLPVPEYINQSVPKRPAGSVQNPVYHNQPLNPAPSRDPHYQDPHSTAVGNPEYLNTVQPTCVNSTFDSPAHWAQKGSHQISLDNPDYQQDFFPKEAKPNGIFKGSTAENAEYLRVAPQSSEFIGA
T3 sequence (P00533 25-1210 T790M/L858R): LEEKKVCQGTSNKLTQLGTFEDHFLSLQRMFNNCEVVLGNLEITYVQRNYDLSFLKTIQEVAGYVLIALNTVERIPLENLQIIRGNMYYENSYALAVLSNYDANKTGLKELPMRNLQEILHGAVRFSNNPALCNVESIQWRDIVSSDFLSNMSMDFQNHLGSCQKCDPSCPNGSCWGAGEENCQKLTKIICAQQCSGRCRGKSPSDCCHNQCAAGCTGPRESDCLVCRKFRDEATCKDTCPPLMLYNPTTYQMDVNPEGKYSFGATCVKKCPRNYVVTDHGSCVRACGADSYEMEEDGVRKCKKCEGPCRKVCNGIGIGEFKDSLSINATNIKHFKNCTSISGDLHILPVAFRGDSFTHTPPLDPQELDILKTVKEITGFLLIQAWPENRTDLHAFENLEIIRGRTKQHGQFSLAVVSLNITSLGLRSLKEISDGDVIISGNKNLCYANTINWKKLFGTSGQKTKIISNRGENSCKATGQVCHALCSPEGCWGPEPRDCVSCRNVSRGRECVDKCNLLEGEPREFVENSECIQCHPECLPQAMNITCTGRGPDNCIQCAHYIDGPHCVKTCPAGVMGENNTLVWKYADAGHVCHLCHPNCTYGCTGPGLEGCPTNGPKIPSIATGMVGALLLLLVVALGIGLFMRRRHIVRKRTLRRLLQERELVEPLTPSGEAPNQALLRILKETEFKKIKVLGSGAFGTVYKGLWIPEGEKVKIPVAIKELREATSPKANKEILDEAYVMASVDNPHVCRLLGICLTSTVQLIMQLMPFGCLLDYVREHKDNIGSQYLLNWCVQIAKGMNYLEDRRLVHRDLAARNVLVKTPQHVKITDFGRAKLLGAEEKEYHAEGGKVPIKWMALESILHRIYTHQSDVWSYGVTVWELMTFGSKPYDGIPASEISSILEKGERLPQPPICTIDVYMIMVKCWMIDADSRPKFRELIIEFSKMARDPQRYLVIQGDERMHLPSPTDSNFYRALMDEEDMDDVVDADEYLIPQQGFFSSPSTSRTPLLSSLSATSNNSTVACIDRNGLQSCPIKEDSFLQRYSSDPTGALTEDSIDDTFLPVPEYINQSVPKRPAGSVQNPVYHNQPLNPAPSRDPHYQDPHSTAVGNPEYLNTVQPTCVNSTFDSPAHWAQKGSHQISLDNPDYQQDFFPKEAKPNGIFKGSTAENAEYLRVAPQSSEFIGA
T2 sequence (P00533 25-1210 L858R): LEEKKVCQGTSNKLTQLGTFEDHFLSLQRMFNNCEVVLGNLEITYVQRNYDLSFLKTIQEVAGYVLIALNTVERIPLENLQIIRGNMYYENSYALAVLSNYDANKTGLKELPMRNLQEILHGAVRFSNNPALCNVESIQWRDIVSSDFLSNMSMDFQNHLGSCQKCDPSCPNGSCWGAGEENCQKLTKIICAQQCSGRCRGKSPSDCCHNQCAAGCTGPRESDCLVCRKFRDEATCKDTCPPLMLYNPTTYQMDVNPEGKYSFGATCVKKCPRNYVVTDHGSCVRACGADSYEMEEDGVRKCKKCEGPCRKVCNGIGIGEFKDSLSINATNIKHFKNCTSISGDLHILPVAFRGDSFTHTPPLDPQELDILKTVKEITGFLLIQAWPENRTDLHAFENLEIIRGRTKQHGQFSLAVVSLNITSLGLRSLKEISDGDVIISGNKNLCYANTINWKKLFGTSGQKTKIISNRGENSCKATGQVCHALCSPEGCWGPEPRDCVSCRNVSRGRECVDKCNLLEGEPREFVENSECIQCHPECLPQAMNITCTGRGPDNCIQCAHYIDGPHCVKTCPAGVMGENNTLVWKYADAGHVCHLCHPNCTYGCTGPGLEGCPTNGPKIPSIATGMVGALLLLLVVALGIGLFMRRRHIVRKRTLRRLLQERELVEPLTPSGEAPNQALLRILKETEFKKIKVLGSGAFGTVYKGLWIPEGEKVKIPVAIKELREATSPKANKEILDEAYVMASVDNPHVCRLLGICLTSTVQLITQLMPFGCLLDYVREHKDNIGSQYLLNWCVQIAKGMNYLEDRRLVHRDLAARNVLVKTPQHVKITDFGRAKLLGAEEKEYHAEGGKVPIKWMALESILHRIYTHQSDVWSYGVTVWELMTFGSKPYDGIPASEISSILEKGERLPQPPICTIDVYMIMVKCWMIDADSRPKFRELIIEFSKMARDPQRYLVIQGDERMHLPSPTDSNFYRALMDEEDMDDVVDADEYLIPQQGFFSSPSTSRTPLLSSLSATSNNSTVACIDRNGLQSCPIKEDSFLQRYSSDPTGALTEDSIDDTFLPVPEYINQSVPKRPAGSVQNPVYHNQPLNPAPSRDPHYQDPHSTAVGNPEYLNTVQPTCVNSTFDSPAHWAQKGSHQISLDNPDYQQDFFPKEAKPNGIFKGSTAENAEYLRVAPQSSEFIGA
T9 sequence (P00533 25-1210 C797S/L858R): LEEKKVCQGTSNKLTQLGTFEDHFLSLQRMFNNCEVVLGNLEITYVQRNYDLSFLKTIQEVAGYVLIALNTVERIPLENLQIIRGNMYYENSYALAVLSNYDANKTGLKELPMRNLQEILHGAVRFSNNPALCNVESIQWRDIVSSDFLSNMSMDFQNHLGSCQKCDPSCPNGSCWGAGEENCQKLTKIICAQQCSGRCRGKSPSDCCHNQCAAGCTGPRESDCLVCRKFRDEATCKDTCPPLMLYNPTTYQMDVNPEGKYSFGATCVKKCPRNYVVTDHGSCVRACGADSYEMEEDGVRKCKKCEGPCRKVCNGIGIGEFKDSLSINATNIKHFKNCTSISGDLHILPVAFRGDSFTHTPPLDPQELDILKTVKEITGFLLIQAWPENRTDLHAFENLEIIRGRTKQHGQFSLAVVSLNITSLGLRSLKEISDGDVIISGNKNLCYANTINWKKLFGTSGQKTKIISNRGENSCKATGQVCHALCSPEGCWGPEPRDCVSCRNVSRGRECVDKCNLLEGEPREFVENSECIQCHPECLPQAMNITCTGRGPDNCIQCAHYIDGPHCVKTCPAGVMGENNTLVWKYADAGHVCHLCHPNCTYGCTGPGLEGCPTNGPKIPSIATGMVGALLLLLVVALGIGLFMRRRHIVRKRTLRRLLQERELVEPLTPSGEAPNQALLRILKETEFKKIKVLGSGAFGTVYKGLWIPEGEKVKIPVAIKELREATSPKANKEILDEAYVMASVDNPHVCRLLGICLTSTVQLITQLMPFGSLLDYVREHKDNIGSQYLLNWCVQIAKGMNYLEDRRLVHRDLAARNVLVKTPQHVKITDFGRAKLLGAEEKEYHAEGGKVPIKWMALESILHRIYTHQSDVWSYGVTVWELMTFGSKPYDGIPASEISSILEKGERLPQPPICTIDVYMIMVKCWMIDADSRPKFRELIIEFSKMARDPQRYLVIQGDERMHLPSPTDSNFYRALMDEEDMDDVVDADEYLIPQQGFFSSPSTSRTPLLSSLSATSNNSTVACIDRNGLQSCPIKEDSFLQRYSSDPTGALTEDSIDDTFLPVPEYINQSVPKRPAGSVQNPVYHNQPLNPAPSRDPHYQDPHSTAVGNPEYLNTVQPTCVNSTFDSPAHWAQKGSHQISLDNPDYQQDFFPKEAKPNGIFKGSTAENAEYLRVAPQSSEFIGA
T8 sequence (P00533 with tags, fused parts or gaps DEL746-750/C797S limits assumed): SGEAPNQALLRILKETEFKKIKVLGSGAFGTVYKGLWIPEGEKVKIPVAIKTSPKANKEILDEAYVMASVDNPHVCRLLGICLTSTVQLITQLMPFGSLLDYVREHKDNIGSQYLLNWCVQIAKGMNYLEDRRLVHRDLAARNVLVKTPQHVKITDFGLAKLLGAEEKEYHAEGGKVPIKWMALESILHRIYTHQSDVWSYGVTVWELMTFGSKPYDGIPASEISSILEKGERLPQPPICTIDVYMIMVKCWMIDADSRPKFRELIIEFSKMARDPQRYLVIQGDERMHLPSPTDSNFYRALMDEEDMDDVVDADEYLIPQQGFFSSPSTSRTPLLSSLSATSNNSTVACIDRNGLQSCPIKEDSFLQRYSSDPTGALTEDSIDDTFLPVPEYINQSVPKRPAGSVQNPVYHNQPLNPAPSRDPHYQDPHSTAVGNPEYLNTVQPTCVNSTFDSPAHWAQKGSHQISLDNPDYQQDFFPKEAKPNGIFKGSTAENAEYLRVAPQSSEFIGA

| SMILES | IC50 (EGFR wild type) [nM] | IC50 (EGFR L858R) [nM] | IC50 (EGFR L858R/T790M) [nM] | IC50 (EGFR Exon19Del) [nM] | IC50 (EGFR Exon19Del/T790M) [nM] | IC50 (EGFR[T790M/C797S/L858R]) [nM] | IC50 [1] [nM] | IC50 (EGFR (d746-750 C797S)) [nM] | IC50 (EGFR (C797S L858R)) [nM] | GI50 [2, 3] [nM] | GI50 [2, 4] [nM] | GI50 [2, 5] [nM] | GI50 [2, 6] [nM] | GI50 [2, 7] [nM] | GI50 [2, 8] [nM] | GI50 [2, 9] [nM] | GI50 (PC-9) [nM] | GI50 (A-431; A-431 cells) [nM] | GI50 (A-431; [10]) [nM] |
| --- | --- | --- | --- | --- | --- | --- | --- | --- | --- | --- | --- | --- | --- | --- | --- | --- | --- | --- | --- |
| CN1CCN(C2CCN(c3ccc4nc5n(c4c3)C34CCC(CN(CCOc6c(cnn6C)-c6cc(cn(C)c6=O)C(=O)N5)C3)C4)C2)CC1 (single isomer, unassigned) [Example A80B1, 15,21-Dimethyl-5-[3-(4-methylpiperazin-1-yl)pyrrolidin-1-yl]-23-oxa-2,9,11,15,20,21,26-heptaazaheptacyclo[24.4.1.1^{1,28}.1^{13,17}.0^{2,10}.0^{3,8}.0^{18,22}]tritriaconta-3,5,7,9,13,17(33),18(22),19-octaene-12,16-dione] | 9.3 | 7.2 | 7.8 | 3.2 | 6.2 | 6.7 | 5.1 | 3.1 | 8.8 | 0.55 | 1 | 1.2 | 3 | 1 | 4.2 | 1 | 11 | 6140 | – |
| Cn1ncc2c1OCCN1CC3CCC(C3)(C1)n1c(nc3ccc(N4CCN(C5CC5)CC4)cc31)NC(=O)c1cc-2c(=O)n(C)c1 (single isomer, unassigned) [Example A83A] | > 5000 | 2020 | > 5000 | 428 | > 5000 | > 5000 | > 5000 | 577 | 2600 | 176 | 789 | 993 | 468 | 1090 | 1130 | 585 | 766 | 7760 | – |
| Cn1ncc2c1OCCN1CC3CCC(C3)(C1)n1c(nc3ccc(N4CCN(C5CC5)CC4)cc31)NC(=O)c1cc-2c(=O)n(C)c1 (single isomer, unassigned) [Example A83B] | 83 | 5 | 2.8 | 0.96 | 2.7 | 2.3 | 2.7 | 0.96 | 5 | 0.7 | 10 | 13 | 8.9 | 15 | 25 | 10 | 20 | 1190 | – |
| CN(C)C1CN(c2ccc3nc4n(c3c2)C23CCC(CN(CCOc5c(cnn5C)-c5cc(cn(C)c5=O)C(=O)N4)C2)C3)CC1F (single isomer, unassigned) [Example A84A, 15,21-Dimethyl-5-[4-fluoro-3-(N,N-dimethylamino)pyrrolidinyl]-23-oxa-2,9,11,15,20,21,26-heptaazaheptacyclo[24.4.1.1^{1,28}.1^{13,17}.0^{2,10}.0^{3,8}.0^{18,22}]tritriaconta-3,5,7,9,13,17(33),18(22),19-octaene-12,16-dione] | > 5000 | 830 | > 5000 | 226 | > 5000 | > 5000 | > 5000 | 258 | 1180 | 98 | 232 | 311 | 190 | 362 | 402 | 171 | 214 | 3990 | – |
| CN(C)C1CN(c2ccc3nc4n(c3c2)C23CCC(CN(CCOc5c(cnn5C)-c5cc(cn(C)c5=O)C(=O)N4)C2)C3)CC1F (single isomer, unassigned) [Example A84C, 15,21-Dimethyl-5-[4-fluoro-3-(N,N-dimethylamino)pyrrolidinyl]-23-oxa-2,9,11,15,20,21,26-heptaazaheptacyclo[24.4.1.1^{1,28}.1^{13,17}.0^{2,10}.0^{3,8}.0^{18,22}]tritriaconta-3,5,7,9,13,17(33),18(22),19-octaene-12,16-dione] | 57 | 6.7 | 5 | 2.6 | 3.4 | 3.5 | 2.5 | 1.4 | 4.8 | 0.72 | 2.1 | 2.1 | 3.9 | 6 | 12 | 2.7 | 6.6 | 727 | – |

Results, then the molecule that gave them:

| IC50 (EGFR wild type) [nM] | IC50 (EGFR L858R) [nM] | IC50 (EGFR L858R/T790M) [nM] | IC50 (EGFR Exon19Del) [nM] | IC50 (EGFR Exon19Del/T790M) [nM] | IC50 (EGFR[T790M/C797S/L858R]) [nM] | IC50 [1] [nM] | IC50 (EGFR (d746-750 C797S)) [nM] | IC50 (EGFR (C797S L858R)) [nM] | GI50 [2, 3] [nM] | GI50 [2, 4] [nM] | GI50 [2, 5] [nM] | GI50 [2, 6] [nM] | GI50 [2, 7] [nM] | GI50 [2, 8] [nM] | GI50 [2, 9] [nM] | GI50 (PC-9) [nM] | GI50 (A-431; A-431 cells) [nM] | GI50 (A-431; [10]) [nM] | SMILES |
| --- | --- | --- | --- | --- | --- | --- | --- | --- | --- | --- | --- | --- | --- | --- | --- | --- | --- | --- | --- |
| > 5000 | 1530 | > 5000 | 404 | > 5000 | > 5000 | > 5000 | 389 | > 5000 | 107 | 258 | 319 | 170 | 381 | 350 | 178 | 247 | – | 1320 | CN1CCC2(CCN(c3ccc4nc5n(c4c3)C34CCC(CN(CCOc6c(cnn6C)-c6cc(cn(C)c6=O)C(=O)N5)C3)C4)C2)C1 (single isomer, unassigned) [Example A81A] |
| 6.6 | 3.2 | 2.3 | 1.8 | 2.8 | 2.3 | 2.3 | 1.7 | 3.1 | 0.7 | 2.8 | 2.6 | 2.7 | 11 | 12 | 1.9 | 6.9 | 667 | – | CN1CCC2(CCN(c3ccc4nc5n(c4c3)C34CCC(CN(CCOc6c(cnn6C)-c6cc(cn(C)c6=O)C(=O)N5)C3)C4)C2)C1 (single isomer, unassigned) [Example A81B] |
| 0.92 | 0.87 | 1.8 | 1.1 | 2.1 | 1.7 | 2 | 0.87 | 1.4 | 0.77 | 0.86 | 0.78 | 0.68 | 1 | 0.82 | 0.9 | 2.4 | – | 203 | CN1CCC2(CCN(c3ccc4nc5n(c4c3)C34CCC(CN(CCOc6c(cnn6C)-c6cc(cn(C)c6=O)C(=O)N5)C3)C4)CC2)C1 (single isomer, unassigned) [Example A82B] |
